System: visceral hypersensitivity in post-colitis rats
Assay: Visceromotor response (VMR) to colorectal distensions, TNBS-induced post-colitis rat model for visceral hypersensitivity
Type: in vivo, Sprague–Dawley rats
Protocol: A well-characterized 2,4,6-trinitrobenzene sulfonic acid (TNBS)-induced post-colitis rat model for visceral hypersensitivity was used in this study. Details on the procedures are given in subsequent paragraphs. After acclimation, an enema containing TNBS was used to induce a mild colitis, whereas control rats received an enema containing saline. The presence and severity of acute colitis were scored colonoscopically 3 days later. Subsequently, a colonoscopy was performed starting from day 10 and repeated every 4 days until complete mucosal healing was observed. Then, electromyographic (EMG) electrodes were implanted in the abdominal musculature of the rat and exteriorized at the scapular region. Three days later, the serine protease inhibitor UAMC-00050 or its vehicle was given intracolonically. Thirty minutes after the single administration of the drug, visceral sensitivity to colorectal distensions and colonic compliance were evaluated. Finally, animals were sacrificed (exsanguination under pentobarbital anesthesia, 45 mg/kg i.p.) and inflammatory parameters (colonoscopy, macroscopy, microscopy, and myeloperoxidase (MPO) activity) were scored to confirm the post-inflammatory state of the animal and to evaluate effects of the compound on mucosal inflammation. Colonic and fecal samples were taken for the assessment of proteolytic activities using selective fluorogenic substrates. Pharmacokinetic experiments were performed in a separate group of rats.
After an overnight fast with free access to water, rats were anesthetized with a mixture of ketamine (35 mg/kg, i.p.) and xylazine (5 mg/kg, i.p.) and placed in a Trendelenburg position. A flexible catheter (18 G, length 4.5 cm) was used to administer a 250 µL TNBS-enema (4 mg in 50% ethanol) or saline in the distal colon of randomized colitis and control rats, respectively, according to previously published protocols. Afterwards, animals were allowed to recover in their own cages with free access to water and food.
The serine protease inhibitor UAMC-00050 (0.1–1.0–2.5–5.0 mg/kg, dissolved in a volume of 200 µL) or its vehicle (5% DMSO in H2O) was delivered colonically using a flexible catheter (18 G, length 4.5 cm) under short-lasting isoflurane anesthesia (5.0% induction, 1.5% maintenance). To prevent expulsion of the enema, animals were held in a Trendelenburg position for 90 s. Doses for intracolonic administration were based on the doses known to be effective via an i.p. administration and adapted afterwards based on preliminary results.
Contractions of the abdominal musculature in response to isobaric colorectal distensions, a nociceptive reflex known as the visceromotor response (VMR), were used to quantify colonic mechanosensitivity in vivo [24, 28]. To this end, 2 Teflon-coated EMG electrodes (AISI 316 stainless steel, ø 0.125 mm, Advent Research Material Ltd., Oxford, UK) were sutured into the abdominal external oblique muscle, in close proximity to the right inguinal ligament and 5 mm apart. Then, the electrodes were tunneled, subcutaneously towards the base of the neck, exteriorized, and fixated with a plastic cap for future access. Rats were single-housed during their 3-day recovery after the surgical procedure to protect the electrodes and plastic cap from damage.
On the day of the VMR experiment, a lubricated balloon (length 5.0 cm) was introduced into the colorectum of the conscious rat and connected to a barostat, allowing phasic isobaric colonic distensions (Distender Series IIR Barostat, G&J Electronics, Toronto, ON, Canada). EMG electrodes were attached to a data acquisition system and a standardized, pressure-controlled phasic distension protocol was used to expand the balloon (20 s distensions of 10–20–30–40–60 mmHg, 4 min interval). […]

SMILES: CC(=O)Nc1ccc(OP(=O)(Oc2ccc(NC(C)=O)cc2)C(Cc2ccc(N=C(N)N)cc2)NC(=O)OCc2ccccc2)cc1.Cl (stereo not drawn) [UAMC-00050]
- Effect on visceral sensitivity (VMR) (control rats, 5.0 mg/kg single intracolonic administration): no changes in visceral sensitivity
- Effect on visceral sensitivity (VMR) (post-colitis rats, 0.1 mg/kg single intracolonic administration, 30 min before): attenuated visceral sensitivity at 30 and 40 mmHg
- Effect on visceral sensitivity (VMR) (post-colitis rats, 1.0 mg/kg single intracolonic administration, 30 min before): decreased visceral sensitivity at 20 mmHg
- Effect on visceral sensitivity (VMR) (post-colitis rats, 2.5 mg/kg single intracolonic administration, 30 min before): completely restored sensitivity to normal values
- Effect on visceral sensitivity (VMR) (post-colitis rats, 5.0 mg/kg single intracolonic administration, 30 min before): VMRs that were even lower than those in control rats
- Dose required to obtain complete reversal of visceral hypersensitivity (post-colitis rats, intracolonic): 2.5 mg/kg
